# Assay results taken from PMC11481871, “Discovery of GuaB inhibitors with efficacy against Acinetobacter baumannii infection” (mBio, 2024).
# “And” between values parts separate entries of the source, which are not always exact repeats. Equal entries are not always repeated. Where two headings read alike, the source gives them in different places.
# How the values were obtained:
# A. baumannii GuaB = A. baumannii GuaB (Acinetobacter baumannii, UniProt D0CF46); assay: GuaB biochemical IC50
# S. aureus GuaB = S. aureus GuaB (Staphylococcus aureus, UniProt P99106); assay: GuaB biochemical IC50
# Sequence of S. aureus GuaB (P99106 whole entry): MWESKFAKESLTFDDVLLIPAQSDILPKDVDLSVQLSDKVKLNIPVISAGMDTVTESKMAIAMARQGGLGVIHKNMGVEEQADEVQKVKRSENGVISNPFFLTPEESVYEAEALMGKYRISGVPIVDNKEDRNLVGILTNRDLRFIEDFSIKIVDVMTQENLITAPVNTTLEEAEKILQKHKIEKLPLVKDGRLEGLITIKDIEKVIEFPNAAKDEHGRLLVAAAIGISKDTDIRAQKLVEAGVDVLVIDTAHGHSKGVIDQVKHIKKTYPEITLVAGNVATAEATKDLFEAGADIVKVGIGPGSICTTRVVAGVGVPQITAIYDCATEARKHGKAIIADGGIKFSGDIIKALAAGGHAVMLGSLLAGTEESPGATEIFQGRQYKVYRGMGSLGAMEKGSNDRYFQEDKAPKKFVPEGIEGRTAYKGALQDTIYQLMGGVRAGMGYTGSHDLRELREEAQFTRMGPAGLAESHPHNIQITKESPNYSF
# H. sapiens IMPDH2 = H. sapiens IMPDH2 (Homo sapiens, UniProt P12268); assay: IMPDH2 biochemical IC50
# Staphylococcus aureus = assay: MIC, CLSI microdilution; assay type: cell-based; conditions: NRS 384 / USA300; Staphylococcus aureus USA300 NRS384; RPMI1640
# [1] = test system: Staphylococcus epidermidis; assay: MIC, CLSI microdilution; assay type: cell-based; conditions: Staphylococcus epidermidis RP62A (ATCC35984); RPMI1640
# Mycobacterium avium = assay: MIC, CLSI microdilution; assay type: cell-based; conditions: 336 h; Mycobacterium avium (ATCC25291); 7H9 + OADC, 14 days
# [2] = test system: Mycobacterium tuberculosis H37Rv; assay: MIC, resazurin redox assay; assay type: cell-based; conditions: ATCC 27294 / H37Rv, 192 h, Mycobacterium tuberculosis H37Rv (ATCC27294)
# Mycobacterium marinum = assay: MIC, CLSI microdilution; assay type: cell-based; conditions: 7H9 + OADC, 48 h
# Mycobacterium smegmatis = assay: MIC, CLSI microdilution; assay type: cell-based; conditions: Mycolicibacterium smegmatis; Mycobacterium smegmatis mc2-155; 7H9 + OADC, 48 h
# Enterococcus faecium = assay: MIC, CLSI microdilution; assay type: cell-based; conditions: Enterococcus faecium (ATCC700221); RPMI1640
# Bacillus subtilis = assay: MIC, CLSI microdilution; assay type: cell-based; conditions: RPMI1640
# Pseudomonas aeruginosa = assay: MIC, CLSI microdilution; assay type: cell-based; conditions: 20 h; Pseudomonas aeruginosa PAO1; M9 + casamino acids + glucose
# [3] = test system: Stenotrophomonas maltophilia; assay: MIC, CLSI microdilution; assay type: cell-based; conditions: 20 h; Stenotrophomonas maltophilia (ATCC700267); M9 + casamino acids + glucose
# Escherichia coli = assay: MIC, CLSI microdilution; assay type: cell-based; conditions: 20 h; Escherichia coli UPEC CFT073; M9 + casamino acids + glucose
# Citrobacter werkmanii = assay: MIC, CLSI microdilution; assay type: cell-based; conditions: 20 h; Citrobacter werkmanii (ATCC51114); M9 + casamino acids + glucose
# Serratia marcescens = assay: MIC, CLSI microdilution; assay type: cell-based; conditions: 20 h; Serratia marcescens (ATCC29021); M9 + casamino acids + glucose
# Enterobacter cloacae = assay: MIC, CLSI microdilution; assay type: cell-based; conditions: 20 h; Enterobacter cloacae (ATCC222); M9 + casamino acids + glucose
# Proteus mirabilis = assay: MIC, CLSI microdilution; assay type: cell-based; conditions: 20 h; Proteus mirabilis (ATCC29906); M9 + casamino acids + glucose
# [4] = test system: A. baumannii 19606 (wild-type); assay: microbe, parasite or virus in culture; assay type: cell-based, Acinetobacter baumannii; conditions: for MIC: Acinetobacter baumannii
# [5] = test system: A. baumannii ΔadeJ (efflux-defective); assay: microbe, parasite or virus in culture; assay type: cell-based; conditions: Acinetobacter baumannii, read-out: Avg. MIC
# [6] = test system: A. baumannii ΔlpxA (LPS-null); assay: MIC on LPS-null A. baumannii; assay type: cell-based; conditions: Acinetobacter baumannii, read-out: Avg. MIC
# [7] = test system: Acinetobacter baumannii ATCC19606 GuaB mutants; assay: MIC on GuaBi-resistant A. baumannii 19606 guaB mutants; assay type: cell-based; conditions: for MIC: Acinetobacter baumannii; for shifts in MIC conferred by on-target mutations: GuaBi-resistant mutants; for Fold shift in MIC vs parental wild-type / MIC of resistant mutant: from fluctuation assay
# [8] = test system: 41 different cellular targets; assay: Secondary pharmacology panel (Cerep Eurofins); assay type: binding; conditions: for Hits (>50% Binding) / Hits (>75% Binding): 41 targets
# hERG = target: T1, hERG (Homo sapiens, UniProt Q12809); assay: hERG 2-point automatic patch clamp assay; assay type: cell-based
# T1 construct: expressed in transfected cells; host or cells: HEK293
# T1 sequence (Q12809 whole entry): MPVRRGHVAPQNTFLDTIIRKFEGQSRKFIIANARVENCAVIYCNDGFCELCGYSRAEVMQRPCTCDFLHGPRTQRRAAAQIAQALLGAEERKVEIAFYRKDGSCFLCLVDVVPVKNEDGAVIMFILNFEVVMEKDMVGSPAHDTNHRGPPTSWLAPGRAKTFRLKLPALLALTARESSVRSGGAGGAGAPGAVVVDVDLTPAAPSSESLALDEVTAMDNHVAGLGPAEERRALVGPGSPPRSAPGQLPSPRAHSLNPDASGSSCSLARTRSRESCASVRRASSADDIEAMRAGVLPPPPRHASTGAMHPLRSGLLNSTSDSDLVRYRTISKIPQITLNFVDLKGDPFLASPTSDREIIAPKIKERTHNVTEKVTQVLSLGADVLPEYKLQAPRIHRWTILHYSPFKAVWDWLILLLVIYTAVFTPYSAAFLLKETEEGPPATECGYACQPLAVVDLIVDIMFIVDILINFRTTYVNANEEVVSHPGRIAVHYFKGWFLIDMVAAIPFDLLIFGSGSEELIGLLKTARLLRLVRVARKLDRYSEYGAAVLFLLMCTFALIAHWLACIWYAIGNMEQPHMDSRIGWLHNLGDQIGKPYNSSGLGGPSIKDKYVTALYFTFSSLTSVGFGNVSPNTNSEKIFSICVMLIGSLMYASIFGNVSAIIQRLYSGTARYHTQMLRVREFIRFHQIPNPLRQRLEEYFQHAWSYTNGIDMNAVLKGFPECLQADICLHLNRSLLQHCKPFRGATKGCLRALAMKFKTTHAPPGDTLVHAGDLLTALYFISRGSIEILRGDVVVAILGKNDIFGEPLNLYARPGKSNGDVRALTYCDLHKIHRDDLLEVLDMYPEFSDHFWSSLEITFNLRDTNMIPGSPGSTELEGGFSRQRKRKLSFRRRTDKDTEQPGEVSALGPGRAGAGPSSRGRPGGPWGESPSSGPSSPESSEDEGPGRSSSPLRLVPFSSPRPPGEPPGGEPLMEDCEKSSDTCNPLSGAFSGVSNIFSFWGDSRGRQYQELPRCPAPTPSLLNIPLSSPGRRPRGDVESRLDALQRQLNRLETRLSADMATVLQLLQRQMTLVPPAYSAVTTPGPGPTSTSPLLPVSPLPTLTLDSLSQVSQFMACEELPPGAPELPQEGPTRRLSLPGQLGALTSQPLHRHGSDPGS
# Experimental: All chemicals used in solution preparation were purchased from Sigma-Aldrich (St. Louis, MO) unless otherwise noted. Test article and positive control concentrations were prepared fresh daily by diluting stock solutions into a HEPES-buffered physiological saline solution (composition in mM): NaCl, 137; KCl, 4.0; CaCl2, 1.8; MgCl2, 1; HEPES, 10; glucose, 10; pH adjusted to 7.4 with NaOH. HEK293 cells were stably transfected with hERG cDNA and maintained in the culture medium with the appropriate selection pressure and antibiotics. All experiments were performed at room temperature. […]
# In preparation for a recording session, intracellular solution was loaded into the intracellular compartments of the QPlate and cell suspension was pipetted into the extracellular compartments. After establishment of a whole-cell configuration, membrane currents were recorded using up to 48 parallel patch clamp amplifiers in the QPatch HT system. The current records were sampled at 2,000 Hz and low-pass Bessel filtered at 400 Hz. Onset and block of hERG current were measured using a stimulus voltage pattern consisting of a 500 ms prepulse to –40 mV (leakage subtraction), a 2-s activating pulse to +40 mV, followed by a 2-s test pulse to −40 mV. The pulse pattern was repeated continuously at 10-s intervals, from a holding potential of −80 mV. Peak tail current (upper panel) was measured during the −40 mV test pulse. Leakage current was calculated from the current amplitude evoked by the prepulse and subtracted from the total membrane current record. Data acquisition and analysis was performed using the QPatch Assay Software (Sophion Bioscience A/S, Denmark). Solubility of all compounds was measured using TurboSol in conjunction with the ion channel testing.
# [9] = 24 h, M9 media + 100µM guanine, 24 hours, read-out: A.b.19606 Average CLSI MIC (n=3)
# [10] = 24 h, M9 media, 24 hours, read-out: A.b.19606 Average CLSI MIC (n=3)
# [11] = A. baumannii 19606 wild-type (Fig 3D), read-out: Avg. MIC
# [12] = guaB allele wild-type, M9 media (cross-resistance table), read-out: A.b.19606 Average CLSI MIC (n=3)
# [13] = ATCC19606, read-out: A.b.19606 Average CLSI MIC (n=3), guaB allele P25A, M9 media
# [14] = ATCC19606, read-out: A.b.19606 Average CLSI MIC (n=3), guaB allele P25S, M9 media
# [15] = ATCC19606, read-out: A.b.19606 Average CLSI MIC (n=3), guaB allele Y445C, M9 media
# [16] = ATCC19606, read-out: A.b.19606 Average CLSI MIC (n=3), guaB allele Y445N, M9 media
# [17] = ATCC19606, read-out: A.b.19606 Average CLSI MIC (n=3), guaB allele Y445S, M9 media
# [18] = ATCC19606, read-out: MIC of resistant mutant, resistance allele Y445S, from fluctuation assay
# Sequence of A. baumannii GuaB (D0CF46 entry or part of it): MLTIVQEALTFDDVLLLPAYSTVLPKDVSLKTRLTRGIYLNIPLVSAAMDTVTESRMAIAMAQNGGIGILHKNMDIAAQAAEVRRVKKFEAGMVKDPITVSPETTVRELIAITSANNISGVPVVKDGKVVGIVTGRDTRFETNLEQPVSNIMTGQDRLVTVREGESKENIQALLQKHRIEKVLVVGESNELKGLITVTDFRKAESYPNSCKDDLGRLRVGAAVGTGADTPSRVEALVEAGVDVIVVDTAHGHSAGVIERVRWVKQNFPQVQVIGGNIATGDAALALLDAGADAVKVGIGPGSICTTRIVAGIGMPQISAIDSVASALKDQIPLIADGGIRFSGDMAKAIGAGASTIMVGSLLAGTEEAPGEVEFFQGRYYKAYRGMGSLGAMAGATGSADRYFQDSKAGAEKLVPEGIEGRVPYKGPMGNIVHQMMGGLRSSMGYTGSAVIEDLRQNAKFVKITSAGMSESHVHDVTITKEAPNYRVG
smiles,measurement,setting,value
"C[C@H](Nc1ccc2ncc3c(c2c1)CCOC3)C(=O)Nc1ccc(Cl)nc1 [G1, (2S)-N-(6-chloro-3-pyridyl)-2-(2,4-dihydro-1H-pyrano[3,4-c]quinolin-9 ylamino)propanamide]",IC50,A. baumannii GuaB,0.26 nM
same,IC50,S. aureus GuaB,0.38 nM
same,IC50,H. sapiens IMPDH2,> 50000 nM
same,MIC,Staphylococcus aureus,0.1 µM
same,MIC,[1],0.03 µM
same,MIC,Mycobacterium avium,0.8 µM
same,MIC,[2],0.3 µM
same,MIC,Mycobacterium marinum,0.01 µM
same,MIC,Mycobacterium smegmatis,0.01 µM
same,MIC,Enterococcus faecium,1 µM
same,MIC,Bacillus subtilis,1.2 µM
same,MIC,Pseudomonas aeruginosa,100 µM
same,MIC,[3],14 µM
same,MIC,Escherichia coli,> 100 µM
same,MIC,Citrobacter werkmanii,> 100 µM
same,MIC,Serratia marcescens,> 100 µM
same,MIC,Enterobacter cloacae,> 100 µM
same,MIC,Proteus mirabilis,> 100 µM
same,MIC,[4]; [9],> 100 µM
same,MIC,[4]; [10],1 µM
same,MIC,[4]; [11],0.69 µM
same,MIC,[4]; [12],0.5 µM
same,GuaBi CLSI MIC fold change from parent strain,[4]; guaB allele wild-type,1
same,MIC,[5],0.016 µM
same,MIC,[6],0.025 µM
same,MIC,[7]; [13],6.3 µM
same,MIC,[7]; [14],2.6 µM
same,MIC,[7]; [15],1.6 µM
same,MIC,[7]; [16],41.7 µM
same,MIC,[7]; [17],> 100 µM
same,MIC,"[7]; ATCC19606, read-out: MIC of resistant mutant, resistance allele Y445N, from fluctuation assay",50 µM
same,MIC,[7]; [18],50 µM
same,shifts in MIC conferred by on-target mutations,[7],≥ 32 fold
same,GuaBi CLSI MIC fold change from parent strain,[7]; guaB allele P25A,12
same,GuaBi CLSI MIC fold change from parent strain,[7]; guaB allele P25S,5
same,GuaBi CLSI MIC fold change from parent strain,[7]; guaB allele Y445C,3
same,GuaBi CLSI MIC fold change from parent strain,[7]; guaB allele Y445N,80
same,GuaBi CLSI MIC fold change from parent strain,[7]; guaB allele Y445S,>200
same,Fold shift in MIC vs parental wild-type,[7]; resistance allele Y445N,"64, 64 and 64"
same,MIC of resistant mutant,[7]; resistance allele Y445N,50 µM
same,Fold shift in MIC vs parental wild-type,[7]; resistance allele Y445S,"64, 64"
same,in vitro safety profile: promiscuity,[8],low promiscuity
same,in vitro safety profile: selectivity,[8],good selectivity
same,Promiscuity Risk,[8]; 10µM,0%
same,Selectivity Risk,[8]; 10µM,0%
same,Hits (>50% Binding),[8]; 10µM,0
same,Hits (>75% Binding),[8]; 10µM,0
same,hERG 1µM,hERG,2.80%
same,hERG 10µM,hERG,37.20%
"C[C@H](Nc1ccc2ncc(CO)cc2c1)C(=O)Nc1ccc(Cl)c(N(C)C)c1 [G2, (2S)-N-[4-chloro-3-(dimethylamino)phenyl]-2-[[3-(hydroxymethyl)-6-quinolyl]amino]propanamide]",IC50,A. baumannii GuaB,0.63 nM
same,IC50,S. aureus GuaB,3.4 nM
same,IC50,H. sapiens IMPDH2,> 50000 nM
same,MIC,Staphylococcus aureus,1.6 µM
same,MIC,[1],0.4 µM
same,MIC,Mycobacterium avium,12.5 µM
same,MIC,[2],2.5 µM
same,MIC,Mycobacterium marinum,0.1 µM
same,MIC,Mycobacterium smegmatis,1.3 µM
same,MIC,Enterococcus faecium,5.2 µM
same,MIC,Bacillus subtilis,13.8 µM
same,MIC,Pseudomonas aeruginosa,> 100 µM
same,MIC,[3],38 µM
same,MIC,Escherichia coli,> 100 µM
same,MIC,Citrobacter werkmanii,> 100 µM
same,MIC,Serratia marcescens,> 100 µM
same,MIC,Enterobacter cloacae,> 100 µM
same,MIC,Proteus mirabilis,> 100 µM
same,MIC,[4]; [9],> 100 µM
same,MIC,[4]; [10],4.2 µM
same,MIC,[4]; [11],2 µM
same,MIC,[4]; [12],4.2 µM
same,GuaBi CLSI MIC fold change from parent strain,[4]; guaB allele wild-type,1
same,MIC,[5],0.04 µM
same,MIC,[6],0.07 µM
same,MIC,[7]; [13],66.7 µM
same,MIC,[7]; [14],66.7 µM
same,MIC,[7]; [15],50 µM
same,MIC,[7]; [16],> 100 µM
same,MIC,[7]; [17],> 100 µM
same,MIC,"[7]; ATCC19606, read-out: MIC of resistant mutant, resistance allele P25A, from fluctuation assay",50 µM
same,MIC,"[7]; ATCC19606, read-out: MIC of resistant mutant, resistance allele P25S, from fluctuation assay",50 µM
same,MIC,"[7]; ATCC19606, read-out: MIC of resistant mutant, resistance allele Y445C, from fluctuation assay",50 µM
same,MIC,[7]; [18],100 µM
same,shifts in MIC conferred by on-target mutations,[7],≥ 32 fold
same,GuaBi CLSI MIC fold change from parent strain,[7]; guaB allele P25A,16
same,GuaBi CLSI MIC fold change from parent strain,[7]; guaB allele P25S,16
same,GuaBi CLSI MIC fold change from parent strain,[7]; guaB allele Y445C,12
same,GuaBi CLSI MIC fold change from parent strain,[7]; guaB allele Y445N,>25
same,GuaBi CLSI MIC fold change from parent strain,[7]; guaB allele Y445S,>25
same,Fold shift in MIC vs parental wild-type,[7]; resistance allele P25A,"32, 32, 32"
same,Fold shift in MIC vs parental wild-type,[7]; resistance allele P25S,"32, 32, 32 and 32"
same,MIC of resistant mutant,[7]; resistance allele P25S,50 µM
same,Fold shift in MIC vs parental wild-type,[7]; resistance allele Y445C,"32, 32, 32 and 64"
same,MIC of resistant mutant,[7]; resistance allele Y445C,100 µM
same,Fold shift in MIC vs parental wild-type,[7]; resistance allele Y445S,64
same,in vitro safety profile: promiscuity,[8],low promiscuity
same,in vitro safety profile: selectivity,[8],good selectivity
same,Promiscuity Risk,[8]; 10µM,0%
same,Selectivity Risk,[8]; 10µM,0%
same,Hits (>50% Binding),[8]; 10µM,0
same,Hits (>75% Binding),[8]; 10µM,0
same,Promiscuity Risk,[8]; 50µM,0%
same,Selectivity Risk,[8]; 50µM,3%
same,Hits (>50% Binding),[8]; 50µM,1
same,Hits (>75% Binding),[8]; 50µM,0
same,hERG 1µM,hERG,1.70%
same,hERG 10µM,hERG,8.60%
same,hERG 50µM,hERG; 50µM,*48.5%
